Source: patent US20100184770A1, “COMPOUNDS” (Glaxo Group Limited, priority 2006, published 2010)
Structures can show the parent of a compound that is named as a salt.

molecular target: T1, human H1 receptor (Homo sapiens, UniProt P35367); assay: Histamine H1 functional antagonist assay: determination of antagonist duration (washout, FLIPR); type: cell-based; conditions: at one or more time points after washout
T1 construct: expressed in transfected cells
Protocol: 1. Generation of Histamine H1 Cell Line The human H1 receptor is cloned using known procedures described in the literature [Biochem. Biophys. Res. Commun., 201(2):894 (1994)]. Chinese hamster ovary (CHO) cells stably expressing the human H1 receptor are generated according to known procedures described in the literature [Br. J. Pharmacol., 117(6):1071 (1996)].
To determine the antagonist duration, cells are cultured overnight in non-coated black-walled clear bottom 96-well tissue culture plates, are washed with PBS and are incubated with a concentration of antagonist chosen to give an approximate DR in the range 30-300. Following the 30 min antagonist incubation period, the cells are washed two or three times with 200 μl of PBS and then 100 μl Tyrodes buffer is added to each well to initiate antagonist dissociation. Following incubation for predetermined times, typically 30-270 min at 37° C., the cells are then washed again with 200 μl PBS and are incubated with 100 Tyrodes buffer containing Brilliant Black, probenecid and Fluo-4 for 45 min at 37° C., as described above. After this period, the cells are challenged with histamine in the FLIPR™ as described above. The dose ratio at each time point is used to determine the fractional H1 receptor occupancy by the following equation: fractional receptor occupancy=(DR-1)/DR. The decrease in receptor occupancy over time approximates to a straight line and is analysed by linear regression. The slope of this straight line fit is used as an index of the dissociation rate of the antagonist. The dose ratios for antagonist treated cells and for antagonist treated and washed cells at each time point are used to calculate a relative dose ratio (rel DR) which is also used as an index of antagonist duration. Antagonists with long duration of action produce rel DR values close to 1, and antagonists with short duration of action produce rel DR values that approaches the dose ratio value obtained for antagonist treatment alone.

T1 sequence (P35367 whole entry): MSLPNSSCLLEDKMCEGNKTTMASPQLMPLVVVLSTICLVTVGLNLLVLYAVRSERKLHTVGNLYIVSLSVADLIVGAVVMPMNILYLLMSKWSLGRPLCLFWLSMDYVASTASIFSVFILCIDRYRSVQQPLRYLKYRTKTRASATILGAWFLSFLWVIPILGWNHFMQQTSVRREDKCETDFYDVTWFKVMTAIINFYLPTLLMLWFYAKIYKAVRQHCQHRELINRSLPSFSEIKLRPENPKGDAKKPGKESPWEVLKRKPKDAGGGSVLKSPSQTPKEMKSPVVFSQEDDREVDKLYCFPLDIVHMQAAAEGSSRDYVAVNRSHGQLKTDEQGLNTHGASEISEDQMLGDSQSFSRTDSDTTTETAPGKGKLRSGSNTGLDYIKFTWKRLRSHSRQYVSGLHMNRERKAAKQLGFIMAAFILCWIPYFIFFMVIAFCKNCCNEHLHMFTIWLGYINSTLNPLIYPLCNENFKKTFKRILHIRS

**Q.** For `O=C(CCN1CCC[C@@H]1Cn1nc(Cc2ccc(Cl)cc2)c2ccccc2c1=O)NCCF.O=C(O)C(F)(F)F` [Example 1, 3-((2R)-2-{[4-[(4-Chlorophenyl)methyl]-1-oxo-2(1H)-phthalazinyl]methyl}-1-pyrrolidinyl)-N-(2-fluoroethyl)propanamide, trifluoroacetate], which “duration of action compared with azelastine in the histamine H1 functional antagonist assay” value is on record?
**A.** longer duration of action than azelastine

**Q.** With `O=C(CCN1CCC[C@@H]1Cn1nc(Cc2ccc(Cl)cc2)c2ccccc2c1=O)NCC(F)(F)F` [Example 4, 3-((2R)-2-{[4-[(4-chlorophenyl)methyl]-1-oxo-2(1H)-phthalazinyl]methyl}-1-pyrrolidinyl)-N-(2,2,2-trifluoroethyl)propanamide] as the compound, how does the “duration of action compared with azelastine in the histamine H1 functional antagonist assay” value read?
**A.** longer duration of action than azelastine

**Q.** Which “duration of action compared with azelastine in the histamine H1 functional antagonist assay” value does the source give for `O=C(CCN1CCC[C@@H]1Cn1nc(Cc2ccc(Cl)cc2)c2ccccc2c1=O)NCC(F)F.O=CO` [Example 6, formic acid-3-((2R)-2-{[4-[(4-chlorophenyl)methyl]-1-oxo-2(1H)-phthalazinyl]methyl}-1-pyrrolidinyl)-N-(2,2-difluoroethyl)propanamide (1:1)] here?
**A.** longer duration of action than azelastine

**Q.** `O=C(CCN1CCC[C@@H]1Cn1nc(Cc2ccc(Cl)cc2)c2ccccc2c1=O)N1CCCCC1.O=C(O)C(F)(F)F` [Example 12, 4-[(4-chlorophenyl)methyl]-2-({(2R)-1-[3-oxo-3-(1-piperidinyl)propyl]-2-pyrrolidinyl}methyl)-1(2H)-phthalazinone, trifluoroacetate] was tested. Which “duration of action compared with azelastine in the histamine H1 functional antagonist assay” value did it give?
**A.** longer duration of action than azelastine

**Q.** Which “duration of action compared with azelastine in the histamine H1 functional antagonist assay” value does the source give for `COCCN(C)C(=O)CCN1CCC[C@@H]1Cn1nc(Cc2ccc(Cl)cc2)c2ccccc2c1=O.O=C(O)C(F)(F)F` [Example 14, 3-((2R)-2-{[4-[(4-chlorophenyl)methyl]-1-oxo-2(1H)-phthalazinyl]methyl}-1-pyrrolidinyl)-N-methyl-N-[2-(methyloxy)ethyl] propanamide, trifluoroacetate] here?
**A.** longer duration of action than azelastine

**Q.** With `CCOCCNC(=O)CCN1CCCC1Cn1nc(Cc2ccc(Cl)cc2)c2ccccc2c1=O.O=C(O)C(F)(F)F` [Example 22, 3-((2R)-2-{[4-[(4-chlorophenyl)methyl]-1-oxo-2(1H)-phthalazinyl]methyl}-1-pyrrolidinyl)-N-[2-(ethyloxy)ethyl] propanamide, trifluoroacetate] as the compound, how does the “duration of action compared with azelastine in the histamine H1 functional antagonist assay” value read?
**A.** longer duration of action than azelastine

**Q.** With `COCCNC(=O)CCCN1CCC[C@@H]1Cn1nc(Cc2ccc(Cl)cc2)c2ccccc2c1=O.O=CO` [Example 24, Formic acid-4-((2R)-2-{[4-[(4-chlorophenyl)methyl]-1-oxo-2(1H)-phthalazinyl]methyl}-1-pyrrolidinyl)-N-[2-(methyloxy)ethyl] butanamide (1:1)] as the compound, how does the “duration of action compared with azelastine in the histamine H1 functional antagonist assay” value read?
**A.** longer duration of action than azelastine

**Q.** How did the “duration of action compared with azelastine in the histamine H1 functional antagonist assay” value turn out when `CCCNC(=O)CCCN1CCC[C@@H]1Cn1nc(Cc2ccc(Cl)cc2)c2ccccc2c1=O.Cl` [Example 26, 4-((2R)-2-{[4-[(4-Chlorophenyl)methyl]-1-oxo-2(1H)-phthalazinyl]methyl}-1-pyrrolidinyl)-N-propylbutanamide, hydrochloride] was run?
**A.** longer duration of action than azelastine

**Q.** Which “duration of action compared with azelastine in the histamine H1 functional antagonist assay” value does the source give for `CC(C)(C)NC(=O)CN1CCCC1Cn1nc(Cc2ccc(Cl)cc2)c2ccccc2c1=O.O=C(O)C(F)(F)F` [Example 30, 2-((2R)-2-{[4-[(4-chlorophenyl)methyl]-1-oxo-2(1H)-phthalazinyl]methyl}-1-pyrrolidinyl)-N-(1,1-dimethylethyl) acetamide, trifluoroacetate] here?
**A.** longer duration of action than azelastine

**Q.** `CC(C)(C)C(=O)NCCN1CCC[C@@H]1Cn1nc(Cc2ccc(Cl)cc2)c2ccccc2c1=O.O=C(O)C(F)(F)F` [Example 38, N-[2-((2R)-2-{[4-[(4-chlorophenyl)methyl]-1-oxo-2(1H)-phthalazinyl]methyl}-1-pyrrolidinyl)ethyl]-2,2-dimethylpropanamide, trifluoroacetate] was tested. Which “duration of action compared with azelastine in the histamine H1 functional antagonist assay” value did it give?
**A.** longer duration of action than azelastine

**Q.** `COCC(=O)NCCN1CCC[C@@H]1Cn1nc(Cc2ccc(Cl)cc2)c2ccccc2c1=O.O=C(O)C(F)(F)F` [Example 39, N-[2-((2R)-2-{[4-[(4-chlorophenyl)methyl]-1-oxo-2(1H)-phthalazinyl]methyl}-1-pyrrolidinyl)ethyl]-2-(methyloxy)acetamide, trifluoroacetate] was tested. Which “duration of action compared with azelastine in the histamine H1 functional antagonist assay” value did it give?
**A.** longer duration of action than azelastine

**Q.** For `CC(C)C(=O)NCCN1CCC[C@@H]1Cn1nc(Cc2ccc(Cl)cc2)c2ccccc2c1=O.O=C(O)C(F)(F)F` [Example 41, N-[2-((2R)-2-{[4-[(4-chlorophenyl)methyl]-1-oxo-2(1H)-phthalazinyl]methyl}-1-pyrrolidinyl)ethyl]-2-methylpropanamide, trifluoroacetate], which “duration of action compared with azelastine in the histamine H1 functional antagonist assay” value is on record?
**A.** longer duration of action than azelastine

**Q.** With `COCCC(=O)NCCCN1CCC[C@@H]1Cn1nc(Cc2ccc(Cl)cc2)c2ccccc2c1=O` [Example 42, N-[3-((2R)-2-{[4-[(4-Chlorophenyl)methyl]-1-oxo-2(1H)-phthalazinyl]methyl}-1-pyrrolidinyl)propyl]-3-(methyloxy)propanamide, trifluoroacetate] as the compound, how does the “duration of action compared with azelastine in the histamine H1 functional antagonist assay” value read?
**A.** longer duration of action than azelastine

**Q.** With `CC(C)c1noc(CCN2CCC[C@@H]2Cn2nc(Cc3ccc(Cl)cc3)c3ccccc3c2=O)n1.Cl` [Example 61, 4-[(4-Chlorophenyl)methyl]-2-[((2R)-1-{2-[3-(1-methylethyl)-1,2,4-oxadiazol-5-yl]ethyl}-2-pyrrolidinyl)methyl]-1(2H)-phthalazinone, hydrochloride] as the compound, how does the “duration of action compared with azelastine in the histamine H1 functional antagonist assay” value read?
**A.** longer duration of action than azelastine

**Q.** With `COCCCC(=O)NCCN1CCC[C@@H]1Cn1nc(Cc2ccc(Cl)cc2)c2cnccc2c1=O` [Example 70, N-[2-((2R)-2-{[4-[(4-chlorophenyl)methyl]-1-oxopyrido[3,4-d]pyridazin-2(1H)-yl]methyl}-1-pyrrolidinyl)ethyl]-4-(methyloxy)butanamide, trifluoroacetate] as the compound, how does the “duration of action compared with azelastine in the histamine H1 functional antagonist assay” value read?
**A.** longer duration of action than azelastine

**Q.** How did the “duration of action compared with azelastine in the histamine H1 functional antagonist assay” value turn out when `CC(C)(C)C(=O)NCCCN1CCC[C@@H]1Cn1nc(Cc2ccc(Cl)cc2)c2cnccc2c1=O.O=C(O)C(F)(F)F` [Example 80, N-[3-((2R)-2-{[4-[(4-chlorophenyl)methyl]-1-oxopyrido[3,4-d]pyridazin-2(1H)-yl]methyl}-1-pyrrolidinyl)propyl]-2,2-dimethylpropanamide, trifluoroacetate] was run?
**A.** longer duration of action than azelastine
